What was measured:
[1] = biological target: T1, Ephrin type-A receptor 3 (Homo sapiens) (UniProt P29320); test: Residual activity of EPHA3 at 10 uM by microplate scintillation counting
T1 sequence (whole entry): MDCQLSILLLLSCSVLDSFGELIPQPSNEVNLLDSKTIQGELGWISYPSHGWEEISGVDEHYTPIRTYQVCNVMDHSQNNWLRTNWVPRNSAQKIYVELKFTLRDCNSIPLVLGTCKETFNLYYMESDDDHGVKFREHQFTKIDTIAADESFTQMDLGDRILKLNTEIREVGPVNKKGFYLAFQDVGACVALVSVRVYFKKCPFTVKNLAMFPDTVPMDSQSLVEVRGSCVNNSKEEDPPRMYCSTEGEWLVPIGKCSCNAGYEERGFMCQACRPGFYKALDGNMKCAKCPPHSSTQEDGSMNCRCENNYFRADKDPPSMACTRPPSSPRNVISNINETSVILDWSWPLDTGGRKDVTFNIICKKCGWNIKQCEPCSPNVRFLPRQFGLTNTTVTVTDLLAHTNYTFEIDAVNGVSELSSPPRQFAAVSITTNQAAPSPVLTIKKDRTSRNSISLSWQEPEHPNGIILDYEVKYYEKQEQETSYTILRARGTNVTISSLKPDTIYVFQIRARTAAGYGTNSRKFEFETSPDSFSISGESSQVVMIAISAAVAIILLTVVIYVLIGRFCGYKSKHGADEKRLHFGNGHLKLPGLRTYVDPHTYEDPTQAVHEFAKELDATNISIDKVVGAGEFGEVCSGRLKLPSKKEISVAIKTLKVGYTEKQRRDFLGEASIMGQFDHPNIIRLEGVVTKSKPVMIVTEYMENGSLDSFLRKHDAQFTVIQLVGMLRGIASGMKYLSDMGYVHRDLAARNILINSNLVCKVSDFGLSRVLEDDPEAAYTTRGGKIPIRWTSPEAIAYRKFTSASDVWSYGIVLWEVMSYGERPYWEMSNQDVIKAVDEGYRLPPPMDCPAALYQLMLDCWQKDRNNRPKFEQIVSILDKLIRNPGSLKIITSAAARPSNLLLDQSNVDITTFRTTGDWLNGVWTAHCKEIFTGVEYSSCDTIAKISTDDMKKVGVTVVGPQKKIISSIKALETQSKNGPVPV

[2] = biological target: Cyclin-dependent kinase 16 (Homo sapiens) (UniProt Q00536); test: Residual activity of PCTAIRE1 at 10 uM by microplate scintillation counting
[3] = biological target: Mitogen-activated protein kinase 8 (Homo sapiens) (UniProt P45983); test: Residual activity of JNK1 at 1 uM by microplate scintillation counting
[4] = biological target: Mitogen-activated protein kinase kinase kinase 14 (Homo sapiens) (UniProt Q99558); test: Residual activity of NIK at 10 uM by microplate scintillation counting
[5] = biological target: Serine/threonine-protein kinase pim-2 (Homo sapiens) (UniProt Q9P1W9); test: Residual activity of PIM2 at 0.1 uM by microplate scintillation counting
[6] = biological target: T2, Serine/threonine-protein kinase D1 (Homo sapiens) (UniProt Q15139); test: Residual activity of PKCmu at 0.1 uM by microplate scintillation counting
T2 sequence (whole entry): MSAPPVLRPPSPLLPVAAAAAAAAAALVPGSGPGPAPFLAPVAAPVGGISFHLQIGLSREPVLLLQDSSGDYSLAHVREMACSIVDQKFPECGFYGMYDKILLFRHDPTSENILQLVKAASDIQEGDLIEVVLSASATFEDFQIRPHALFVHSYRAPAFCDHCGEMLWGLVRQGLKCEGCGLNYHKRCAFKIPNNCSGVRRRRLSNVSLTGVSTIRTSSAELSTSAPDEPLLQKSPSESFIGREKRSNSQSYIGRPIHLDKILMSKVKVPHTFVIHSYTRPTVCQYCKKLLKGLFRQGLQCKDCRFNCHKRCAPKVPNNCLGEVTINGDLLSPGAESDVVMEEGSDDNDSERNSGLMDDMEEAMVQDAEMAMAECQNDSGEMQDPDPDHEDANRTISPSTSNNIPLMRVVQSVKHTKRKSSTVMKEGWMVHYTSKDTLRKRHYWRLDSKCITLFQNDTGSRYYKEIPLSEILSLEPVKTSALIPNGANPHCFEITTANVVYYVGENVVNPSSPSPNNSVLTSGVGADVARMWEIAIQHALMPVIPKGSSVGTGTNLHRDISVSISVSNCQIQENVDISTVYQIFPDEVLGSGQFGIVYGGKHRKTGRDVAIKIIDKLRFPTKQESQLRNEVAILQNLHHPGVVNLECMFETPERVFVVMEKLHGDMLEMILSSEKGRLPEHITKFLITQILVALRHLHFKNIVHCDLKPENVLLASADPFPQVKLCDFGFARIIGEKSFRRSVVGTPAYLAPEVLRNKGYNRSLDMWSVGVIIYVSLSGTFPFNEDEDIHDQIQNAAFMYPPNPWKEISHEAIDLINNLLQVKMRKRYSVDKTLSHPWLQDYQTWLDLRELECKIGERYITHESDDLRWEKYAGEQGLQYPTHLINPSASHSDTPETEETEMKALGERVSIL

[7] = biological target: T3, Serine/threonine-protein kinase Nek2 (Homo sapiens) (UniProt P51955); test: Residual activity of NEK2 at 0.1 uM by microplate scintillation counting
T3 sequence (whole entry): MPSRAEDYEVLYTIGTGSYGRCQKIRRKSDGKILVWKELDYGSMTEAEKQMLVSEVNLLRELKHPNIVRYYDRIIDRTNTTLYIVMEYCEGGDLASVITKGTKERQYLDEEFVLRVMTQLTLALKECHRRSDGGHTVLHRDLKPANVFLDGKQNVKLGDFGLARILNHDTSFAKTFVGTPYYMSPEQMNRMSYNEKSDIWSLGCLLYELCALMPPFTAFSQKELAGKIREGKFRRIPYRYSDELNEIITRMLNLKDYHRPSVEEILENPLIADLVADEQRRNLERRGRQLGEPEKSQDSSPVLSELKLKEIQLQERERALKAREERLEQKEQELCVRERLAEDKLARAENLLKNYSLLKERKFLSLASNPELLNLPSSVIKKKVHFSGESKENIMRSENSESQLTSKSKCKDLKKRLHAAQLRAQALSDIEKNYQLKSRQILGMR

[8] = biological target: CDK6/cyclin D1 (Homo sapiens) (UniProt P24385+Q00534); test: Residual activity of CDK6/Cyclin D1 at 10 uM by microplate scintillation counting; type: protein-complex assay

Chain of Mitogen-activated protein kinase 8 (Homo sapiens) (P45983 whole entry): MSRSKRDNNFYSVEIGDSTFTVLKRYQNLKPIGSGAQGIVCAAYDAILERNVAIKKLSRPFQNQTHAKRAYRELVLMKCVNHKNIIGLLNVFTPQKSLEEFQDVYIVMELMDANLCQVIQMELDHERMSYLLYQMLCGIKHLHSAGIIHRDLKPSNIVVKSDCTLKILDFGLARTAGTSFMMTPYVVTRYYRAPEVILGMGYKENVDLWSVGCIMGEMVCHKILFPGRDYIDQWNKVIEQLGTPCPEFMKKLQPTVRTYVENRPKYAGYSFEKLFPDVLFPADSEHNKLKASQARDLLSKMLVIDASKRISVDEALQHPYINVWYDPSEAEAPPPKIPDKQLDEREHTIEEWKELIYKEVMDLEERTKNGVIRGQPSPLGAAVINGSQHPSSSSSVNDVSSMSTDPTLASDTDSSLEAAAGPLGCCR
Chain of Cyclin-dependent kinase 16 (Homo sapiens) (Q00536 whole entry): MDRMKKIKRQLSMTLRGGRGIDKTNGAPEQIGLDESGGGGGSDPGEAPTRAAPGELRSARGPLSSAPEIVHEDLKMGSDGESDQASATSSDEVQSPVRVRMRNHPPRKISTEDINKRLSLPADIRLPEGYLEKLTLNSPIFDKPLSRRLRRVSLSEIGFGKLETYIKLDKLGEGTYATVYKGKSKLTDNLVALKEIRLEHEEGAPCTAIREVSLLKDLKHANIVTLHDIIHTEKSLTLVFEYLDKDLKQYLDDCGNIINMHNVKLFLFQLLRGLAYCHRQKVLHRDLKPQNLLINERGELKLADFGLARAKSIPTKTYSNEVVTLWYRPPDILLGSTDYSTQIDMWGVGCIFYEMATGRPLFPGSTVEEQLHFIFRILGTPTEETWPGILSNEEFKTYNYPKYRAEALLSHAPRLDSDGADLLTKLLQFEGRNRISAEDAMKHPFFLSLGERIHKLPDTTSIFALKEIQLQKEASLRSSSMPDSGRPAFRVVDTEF
Chain of Serine/threonine-protein kinase pim-2 (Homo sapiens) (Q9P1W9 whole entry, looked up): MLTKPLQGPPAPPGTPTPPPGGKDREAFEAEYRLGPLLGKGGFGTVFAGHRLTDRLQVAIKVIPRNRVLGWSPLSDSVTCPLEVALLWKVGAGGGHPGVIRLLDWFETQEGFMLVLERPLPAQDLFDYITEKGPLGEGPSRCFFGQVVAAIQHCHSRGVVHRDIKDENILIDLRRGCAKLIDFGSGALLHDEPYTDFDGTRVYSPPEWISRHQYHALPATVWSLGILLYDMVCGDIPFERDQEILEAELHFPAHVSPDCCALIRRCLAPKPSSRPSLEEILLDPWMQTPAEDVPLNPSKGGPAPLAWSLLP
Chain of Mitogen-activated protein kinase kinase kinase 14 (Homo sapiens) (Q99558 whole entry, looked up): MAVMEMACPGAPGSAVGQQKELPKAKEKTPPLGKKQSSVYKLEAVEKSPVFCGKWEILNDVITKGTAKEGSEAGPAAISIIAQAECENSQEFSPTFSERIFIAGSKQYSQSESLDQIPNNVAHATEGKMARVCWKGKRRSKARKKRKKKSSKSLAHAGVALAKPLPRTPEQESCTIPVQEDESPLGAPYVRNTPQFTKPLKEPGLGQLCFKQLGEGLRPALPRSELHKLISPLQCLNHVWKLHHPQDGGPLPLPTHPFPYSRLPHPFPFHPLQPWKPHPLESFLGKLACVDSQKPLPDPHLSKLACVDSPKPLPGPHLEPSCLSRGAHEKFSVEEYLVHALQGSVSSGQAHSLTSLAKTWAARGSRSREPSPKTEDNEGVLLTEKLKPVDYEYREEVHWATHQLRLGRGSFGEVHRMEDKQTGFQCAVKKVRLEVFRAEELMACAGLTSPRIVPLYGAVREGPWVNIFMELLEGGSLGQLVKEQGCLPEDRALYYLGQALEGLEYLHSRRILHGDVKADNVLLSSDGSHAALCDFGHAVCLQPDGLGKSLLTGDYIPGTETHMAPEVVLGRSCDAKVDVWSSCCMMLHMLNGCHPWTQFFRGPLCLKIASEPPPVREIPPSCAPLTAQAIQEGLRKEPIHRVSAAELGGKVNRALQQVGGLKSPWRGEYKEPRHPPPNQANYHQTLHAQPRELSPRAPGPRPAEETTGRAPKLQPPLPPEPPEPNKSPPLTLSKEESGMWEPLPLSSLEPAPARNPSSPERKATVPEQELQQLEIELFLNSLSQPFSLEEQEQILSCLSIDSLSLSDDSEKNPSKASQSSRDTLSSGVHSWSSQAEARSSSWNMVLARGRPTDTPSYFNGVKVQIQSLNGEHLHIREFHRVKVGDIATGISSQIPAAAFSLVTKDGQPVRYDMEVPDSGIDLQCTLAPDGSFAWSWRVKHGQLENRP

residual activity [1] [%]	residual activity [2] [%]	residual activity [3] [%]	residual activity [4] [%]	residual activity [5] [%]	residual activity [6] [%]	residual activity [7] [%]	residual activity [8] [%]	Structure (SMILES)
182	126	142	125	104	102	94	140	COc1cc2c(Oc3ccc(-c4nc5ccccc5s4)cc3)ncnc2cc1OCCCN1CCCC1
143	153	154	107	94	81	90	167	COc1cc2c(Oc3ccc(-c4nc5ccccc5s4)cc3F)ncnc2cc1OCCCN1CCN(C)CC1
236	163	142	94	64	91	95	193	COc1cc2c(Oc3ccc(-c4nc5ccccc5s4)cc3)ncnc2cc1OCCCN1CCN(C)CC1

From ChEMBL document CHEMBL1152560, “Substituted 2-arylbenzothiazoles as kinase inhibitors: hit-to-lead optimization” (Bioorg Med Chem, 2009)
